These results are taken from ChEMBL document CHEMBL4406885, “Effect of self-assembly on antimicrobial activity of double-chain short cationic lipopeptides” (Bioorg Med Chem, 2019).

In general, MIC refers to the lowest concentration found to suppress growth.

Structures are written as SMILES. ≈ marks a conversion by molar mass, not a printed value. Calls of active or inactive are those of the source. The rule behind the calls is not given here. Where a SMILES comes first, the peptide text is derived from it. [ ]: non-standard residue; d: D form. The star is where a group is joined. ξ: configuration not given here. Palmitoyl = CCCCCCCCCCCCCCCC(=O)*; Myristoyl = CCCCCCCCCCCCCC(=O)*; ξDab = NCCC(N)C(=O)O; ξDap = NCC(N)C(=O)O

Test system in the first data set: not listed separately
The experiment in a line: Critical micelle concentration of compound. The data set is classed as physicochemical.
Conditions: not given
Compound `CCCCCCCCCCCCCC(=O)NCCC(NC(=O)CCCCCCCCCCCCC)C(=O)N[C@@H](CCCCN)C(=O)N[C@@H](CCCCN)C(=O)N[C@@H](CCCCN)C(N)=O` (stereo partly specified) (Myristoyl-[ξDab](Myristoyl)KKK-NH2) registered a CMC of 0.45 mM.
The compound `CCCCCCCCCCCCCC(=O)NCC(NC(=O)CCCCCCCCCCCCC)C(=O)N[C@@H](CCCCN)C(=O)N[C@@H](CCCCN)C(=O)N[C@@H](CCCCN)C(N)=O` (stereo partly specified) (Myristoyl-[ξDap](Myristoyl)KKK-NH2) registered a CMC of 0.35 mM.
In turn, `CCCCCCCCCCCCCCCC(=O)NCCC(NC(=O)CCCCCCCCCCCCCCC)C(=O)N[C@@H](CCCCN)C(=O)N[C@@H](CCCCN)C(=O)N[C@@H](CCCCN)C(N)=O` (stereo partly specified) (Palmitoyl-[ξDab](Palmitoyl)KKK-NH2) came in with a CMC of 0.32 mM.
Same read-out and setting: for `CCCCCCCCCCCCCCCC(=O)NCC(NC(=O)CCCCCCCCCCCCCCC)C(=O)N[C@@H](CCCCN)C(=O)N[C@@H](CCCCN)C(=O)N[C@@H](CCCCN)C(N)=O` (stereo partly specified) (Palmitoyl-[ξDap](Palmitoyl)KKK-NH2) the value was 0.32 mM.

The next data set concerns Lipid bilayer. The experiment in a line: Binding affinity to POPC large unilamellar vesicle at 0.2 mM by ITC method.
Conditions: not given
Background: ITC needs no label: the signal is the heat of the interaction.
Take `CCCCCCCCCCCCCC(=O)NCCC(NC(=O)CCCCCCCCCCCCC)C(=O)N[C@@H](CCCCN)C(=O)N[C@@H](CCCCN)C(=O)N[C@@H](CCCCN)C(N)=O` (stereo partly specified) (Myristoyl-[ξDab](Myristoyl)KKK-NH2): the result was inactive.
`CCCCCCCCCCCCCC(=O)NCC(NC(=O)CCCCCCCCCCCCC)C(=O)N[C@@H](CCCCN)C(=O)N[C@@H](CCCCN)C(=O)N[C@@H](CCCCN)C(N)=O` (stereo partly specified) (Myristoyl-[ξDap](Myristoyl)KKK-NH2): the result was inactive.
On to `CCCCCCCCCCCCCCCC(=O)NCCC(NC(=O)CCCCCCCCCCCCCCC)C(=O)N[C@@H](CCCCN)C(=O)N[C@@H](CCCCN)C(=O)N[C@@H](CCCCN)C(N)=O` (stereo partly specified) (Palmitoyl-[ξDab](Palmitoyl)KKK-NH2), for which the result was inactive.
Same read-out and setting: for `CCCCCCCCCCCCCCCC(=O)NCC(NC(=O)CCCCCCCCCCCCCCC)C(=O)N[C@@H](CCCCN)C(=O)N[C@@H](CCCCN)C(=O)N[C@@H](CCCCN)C(N)=O` (stereo partly specified) (Palmitoyl-[ξDap](Palmitoyl)KKK-NH2) the value was “inactive”.

The next data set concerns Staphylococcus epidermidis. The experiment in a line: Antibacterial activity against Staphylococcus epidermidis PCM 2118 assessed as growth inhibition measured after 18 hrs by CLSI based method. It is filed as functional. To be noted: PCM 2118, 18 h.
For the compound `CCCCCCCCCCCCCC(=O)NCCC(NC(=O)CCCCCCCCCCCCC)C(=O)N[C@@H](CCCCN)C(=O)N[C@@H](CCCCN)C(=O)N[C@@H](CCCCN)C(N)=O` (stereo partly specified) (Myristoyl-[ξDab](Myristoyl)KKK-NH2), the MIC is over 512 µg/mL.
Still for that read-out and setting: the figure for `CCCCCCCCCCCCCC(=O)NCC(NC(=O)CCCCCCCCCCCCC)C(=O)N[C@@H](CCCCN)C(=O)N[C@@H](CCCCN)C(=O)N[C@@H](CCCCN)C(N)=O` (stereo partly specified) (Myristoyl-[ξDap](Myristoyl)KKK-NH2) is 128 µg/mL (≈ 141 µM).
Still for that read-out and setting: the figure for `CCCCCCCCCCCCCCCC(=O)NCCC(NC(=O)CCCCCCCCCCCCCCC)C(=O)N[C@@H](CCCCN)C(=O)N[C@@H](CCCCN)C(=O)N[C@@H](CCCCN)C(N)=O` (stereo partly specified) (Palmitoyl-[ξDab](Palmitoyl)KKK-NH2) is 256 µg/mL (≈ 262 µM); for `CCCCCCCCCCCCCCCC(=O)NCC(NC(=O)CCCCCCCCCCCCCCC)C(=O)N[C@@H](CCCCN)C(=O)N[C@@H](CCCCN)C(=O)N[C@@H](CCCCN)C(N)=O` (stereo partly specified) (Palmitoyl-[ξDap](Palmitoyl)KKK-NH2) it is 512 µg/mL (≈ 531 µM).

Test system in another data set: not listed separately
Kind of data set: Critical micelle concentration of compound by ITC method. The data set is classed as physicochemical.
Conditions: not given
Take `CCCCCCCCCCCCCC(=O)NCCC(NC(=O)CCCCCCCCCCCCC)C(=O)N[C@@H](CCCCN)C(=O)N[C@@H](CCCCN)C(=O)N[C@@H](CCCCN)C(N)=O` (stereo partly specified) (Myristoyl-[ξDab](Myristoyl)KKK-NH2): the CMC was in the range of 0.28 to 0.53 mM.
Same read-out and setting: for `CCCCCCCCCCCCCC(=O)NCC(NC(=O)CCCCCCCCCCCCC)C(=O)N[C@@H](CCCCN)C(=O)N[C@@H](CCCCN)C(=O)N[C@@H](CCCCN)C(N)=O` (stereo partly specified) (Myristoyl-[ξDap](Myristoyl)KKK-NH2) the value was 0.35 mM; for `CCCCCCCCCCCCCCCC(=O)NCCC(NC(=O)CCCCCCCCCCCCCCC)C(=O)N[C@@H](CCCCN)C(=O)N[C@@H](CCCCN)C(=O)N[C@@H](CCCCN)C(N)=O` (stereo partly specified) (Palmitoyl-[ξDab](Palmitoyl)KKK-NH2), 0.06 to 0.22 mM.
`CCCCCCCCCCCCCCCC(=O)NCC(NC(=O)CCCCCCCCCCCCCCC)C(=O)N[C@@H](CCCCN)C(=O)N[C@@H](CCCCN)C(=O)N[C@@H](CCCCN)C(N)=O` (stereo partly specified) (Palmitoyl-[ξDap](Palmitoyl)KKK-NH2) showed a CMC of 0.35 to 0.7 mM.

Test system in a further data set: not listed separately
Kind of data set: Surfactant-like property of compound at CMC. It is filed as physicochemical.
Conditions: not given
For the compound `CCCCCCCCCCCCCC(=O)NCCC(NC(=O)CCCCCCCCCCCCC)C(=O)N[C@@H](CCCCN)C(=O)N[C@@H](CCCCN)C(=O)N[C@@H](CCCCN)C(N)=O` (stereo partly specified) (Myristoyl-[ξDab](Myristoyl)KKK-NH2), the gammaCMC amounted to 46.9 mN/meter.
Consider `CCCCCCCCCCCCCC(=O)NCC(NC(=O)CCCCCCCCCCCCC)C(=O)N[C@@H](CCCCN)C(=O)N[C@@H](CCCCN)C(=O)N[C@@H](CCCCN)C(N)=O` (stereo partly specified) (Myristoyl-[ξDap](Myristoyl)KKK-NH2), for which the gammaCMC is 46.1 mN/meter.
`CCCCCCCCCCCCCCCC(=O)NCCC(NC(=O)CCCCCCCCCCCCCCC)C(=O)N[C@@H](CCCCN)C(=O)N[C@@H](CCCCN)C(=O)N[C@@H](CCCCN)C(N)=O` (stereo partly specified) (Palmitoyl-[ξDab](Palmitoyl)KKK-NH2) came in with a gammaCMC of 41.5 mN/meter.
In turn, `CCCCCCCCCCCCCCCC(=O)NCC(NC(=O)CCCCCCCCCCCCCCC)C(=O)N[C@@H](CCCCN)C(=O)N[C@@H](CCCCN)C(=O)N[C@@H](CCCCN)C(N)=O` (stereo partly specified) (Palmitoyl-[ξDap](Palmitoyl)KKK-NH2) registered a gammaCMC of 45.9 mN/meter.

In a further data set the test system is Pseudomonas aeruginosa. The experiment in a line: Antibacterial activity against Pseudomonas aeruginosa ATCC 9027 assessed as growth inhibition measured after 18 hrs by CLSI based method. The data set is classed as functional. The note with it: ATCC 9027, 18 h.
In the case of `CCCCCCCCCCCCCC(=O)NCCC(NC(=O)CCCCCCCCCCCCC)C(=O)N[C@@H](CCCCN)C(=O)N[C@@H](CCCCN)C(=O)N[C@@H](CCCCN)C(N)=O` (stereo partly specified) (Myristoyl-[ξDab](Myristoyl)KKK-NH2), the MIC was over 512 µg/mL.
Still for that read-out and setting: for `CCCCCCCCCCCCCC(=O)NCC(NC(=O)CCCCCCCCCCCCC)C(=O)N[C@@H](CCCCN)C(=O)N[C@@H](CCCCN)C(=O)N[C@@H](CCCCN)C(N)=O` (stereo partly specified) (Myristoyl-[ξDap](Myristoyl)KKK-NH2) the value was over 512 µg/mL.
On to `CCCCCCCCCCCCCCCC(=O)NCCC(NC(=O)CCCCCCCCCCCCCCC)C(=O)N[C@@H](CCCCN)C(=O)N[C@@H](CCCCN)C(=O)N[C@@H](CCCCN)C(N)=O` (stereo partly specified) (Palmitoyl-[ξDab](Palmitoyl)KKK-NH2), for which the MIC is over 512 µg/mL.
Still for that read-out and setting: for `CCCCCCCCCCCCCCCC(=O)NCC(NC(=O)CCCCCCCCCCCCCCC)C(=O)N[C@@H](CCCCN)C(=O)N[C@@H](CCCCN)C(=O)N[C@@H](CCCCN)C(N)=O` (stereo partly specified) (Palmitoyl-[ξDap](Palmitoyl)KKK-NH2) the value was over 512 µg/mL.

For the next data set, the system named is Candida albicans. Kind of data set: Antifungal activity against Candida albicans ATCC 10231 assessed as growth inhibition measured after 48 hrs by CLSI based method. It is filed as functional. The note with it: ATCC 10231, 48 h.
Take `CCCCCCCCCCCCCC(=O)NCCC(NC(=O)CCCCCCCCCCCCC)C(=O)N[C@@H](CCCCN)C(=O)N[C@@H](CCCCN)C(=O)N[C@@H](CCCCN)C(N)=O` (stereo partly specified) (Myristoyl-[ξDab](Myristoyl)KKK-NH2): the MIC is over 512 µg/mL.
Still for that read-out and setting: for `CCCCCCCCCCCCCC(=O)NCC(NC(=O)CCCCCCCCCCCCC)C(=O)N[C@@H](CCCCN)C(=O)N[C@@H](CCCCN)C(=O)N[C@@H](CCCCN)C(N)=O` (stereo partly specified) (Myristoyl-[ξDap](Myristoyl)KKK-NH2) the value was over 512 µg/mL; for `CCCCCCCCCCCCCCCC(=O)NCCC(NC(=O)CCCCCCCCCCCCCCC)C(=O)N[C@@H](CCCCN)C(=O)N[C@@H](CCCCN)C(=O)N[C@@H](CCCCN)C(N)=O` (stereo partly specified) (Palmitoyl-[ξDab](Palmitoyl)KKK-NH2), over 512 µg/mL.
The same measure, in the same setting: for `CCCCCCCCCCCCCCCC(=O)NCC(NC(=O)CCCCCCCCCCCCCCC)C(=O)N[C@@H](CCCCN)C(=O)N[C@@H](CCCCN)C(=O)N[C@@H](CCCCN)C(N)=O` (stereo partly specified) (Palmitoyl-[ξDap](Palmitoyl)KKK-NH2) the value was over 512 µg/mL.

Another data set has as its system Staphylococcus aureus. Kind of data set: Antibacterial activity against Staphylococcus aureus ATCC 25923 assessed as growth inhibition measured after 18 hrs by CLSI based method. It is filed as functional. To be noted: ATCC 25923, 18 h.
For `CCCCCCCCCCCCCC(=O)NCCC(NC(=O)CCCCCCCCCCCCC)C(=O)N[C@@H](CCCCN)C(=O)N[C@@H](CCCCN)C(=O)N[C@@H](CCCCN)C(N)=O` (stereo partly specified) (Myristoyl-[ξDab](Myristoyl)KKK-NH2), the minimum inhibitory concentration (MIC) was over 512 µg/mL.
The same measure, in the same setting: the figure for `CCCCCCCCCCCCCC(=O)NCC(NC(=O)CCCCCCCCCCCCC)C(=O)N[C@@H](CCCCN)C(=O)N[C@@H](CCCCN)C(=O)N[C@@H](CCCCN)C(N)=O` (stereo partly specified) (Myristoyl-[ξDap](Myristoyl)KKK-NH2) is over 512 µg/mL; for `CCCCCCCCCCCCCCCC(=O)NCCC(NC(=O)CCCCCCCCCCCCCCC)C(=O)N[C@@H](CCCCN)C(=O)N[C@@H](CCCCN)C(=O)N[C@@H](CCCCN)C(N)=O` (stereo partly specified) (Palmitoyl-[ξDab](Palmitoyl)KKK-NH2) it is over 512 µg/mL; for `CCCCCCCCCCCCCCCC(=O)NCC(NC(=O)CCCCCCCCCCCCCCC)C(=O)N[C@@H](CCCCN)C(=O)N[C@@H](CCCCN)C(=O)N[C@@H](CCCCN)C(N)=O` (stereo partly specified) (Palmitoyl-[ξDap](Palmitoyl)KKK-NH2) it is over 512 µg/mL.

The subject of the next data set is Escherichia coli. The experiment in a line: Antibacterial activity against Escherichia coli ATCC 25922 assessed as growth inhibition measured after 18 hrs by CLSI based method. It is filed as functional. The note with it: ATCC 25922, 18 h.
Regarding `CCCCCCCCCCCCCC(=O)NCCC(NC(=O)CCCCCCCCCCCCC)C(=O)N[C@@H](CCCCN)C(=O)N[C@@H](CCCCN)C(=O)N[C@@H](CCCCN)C(N)=O` (stereo partly specified) (Myristoyl-[ξDab](Myristoyl)KKK-NH2), the MIC is over 512 µg/mL.
For `CCCCCCCCCCCCCC(=O)NCC(NC(=O)CCCCCCCCCCCCC)C(=O)N[C@@H](CCCCN)C(=O)N[C@@H](CCCCN)C(=O)N[C@@H](CCCCN)C(N)=O` (stereo partly specified) (Myristoyl-[ξDap](Myristoyl)KKK-NH2), the MIC is over 512 µg/mL.
Regarding `CCCCCCCCCCCCCCCC(=O)NCCC(NC(=O)CCCCCCCCCCCCCCC)C(=O)N[C@@H](CCCCN)C(=O)N[C@@H](CCCCN)C(=O)N[C@@H](CCCCN)C(N)=O` (stereo partly specified) (Palmitoyl-[ξDab](Palmitoyl)KKK-NH2), the MIC was over 512 µg/mL.
Same read-out and setting: the figure for `CCCCCCCCCCCCCCCC(=O)NCC(NC(=O)CCCCCCCCCCCCCCC)C(=O)N[C@@H](CCCCN)C(=O)N[C@@H](CCCCN)C(=O)N[C@@H](CCCCN)C(N)=O` (stereo partly specified) (Palmitoyl-[ξDap](Palmitoyl)KKK-NH2) is over 512 µg/mL.
